Data from ChEMBL document CHEMBL1201862, “PubChem BioAssay data set” (2004).
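All cell lines were grown in 96-well plates and treated with compound for 48 hours. Abbreviation: GI50, concentration required for 50% inhibition of growth.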 The source made the active and inactive calls. Cut-off read from the data, not from the text of the source: active = GI50 up to about 1.1 µM and inactive = higher.

What was measured:
Assay in all cases: NCI anticancer screen, dose series, 48 h
[1] = system: 786-0
[2] = system: BT-549
[3] = system: COLO 205
[4] = system: HCT-116
[5] = system: IGROV-1
[6] = system: KM12
[7] = system: LOX IMVI
[8] = system: MCF7
[9] = system: MOLT-4
[10] = system: NCI-H226
[11] = system: NCI-H522
[12] = system: OVCAR-3
[13] = system: OVCAR-5
[14] = system: PC-3
[15] = system: SF-295
[16] = system: SK-MEL-2
[17] = system: SNB-19
[18] = system: SNB-75
[19] = system: TK-10
[20] = system: UO-31

| SMILES | GI50 [1] | GI50 [2] | GI50 [3] | GI50 [4] | GI50 [5] | GI50 [6] | GI50 [7] | GI50 [8] | GI50 [9] | GI50 [10] | GI50 [11] | GI50 [12] | GI50 [13] | GI50 [14] | GI50 [15] | GI50 [16] | GI50 [17] | GI50 [18] | GI50 [19] | GI50 [20] |
| --- | --- | --- | --- | --- | --- | --- | --- | --- | --- | --- | --- | --- | --- | --- | --- | --- | --- | --- | --- | --- |
| O=C(NNS(=O)(=O)c1ccccc1)c1cccnc1 | > 100 µM (inactive) | > 100 µM (inactive) | > 100 µM (inactive) | > 100 µM (inactive) | > 100 µM (inactive) | > 100 µM (inactive) | > 100 µM (inactive) | > 100 µM (inactive) | > 100 µM (inactive) | > 100 µM (inactive) | > 100 µM (inactive) | > 100 µM (inactive) | > 100 µM (inactive) | > 100 µM (inactive) | > 100 µM (inactive) | > 100 µM (inactive) | > 100 µM (inactive) | > 100 µM (inactive) | > 100 µM (inactive) | > 100 µM (inactive) |
| N#CCCCC[N+]12CN3CN(CN(C3)C1)C2 | > 100 µM (inactive) | > 100 µM (inactive) | > 100 µM (inactive) | > 100 µM (inactive) | > 100 µM (inactive) | > 100 µM (inactive) | 32.1 µM (inactive) | 45.7 µM (inactive) | > 100 µM (inactive) | > 100 µM (inactive) | > 100 µM (inactive) | > 100 µM (inactive) | > 100 µM (inactive) | > 100 µM (inactive) | > 100 µM (inactive) | > 100 µM (inactive) | > 100 µM (inactive) | > 100 µM (inactive) | > 100 µM (inactive) | > 100 µM (inactive) |
| O=C1N=NC(=O)N1c1cc(C(F)(F)F)cc(C(F)(F)F)c1 | 4.68 µM (inactive) | 3.61 µM (inactive) | 1.85 µM (inactive) | 3.24 µM (inactive) | 3.83 µM (inactive) | 3.93 µM (inactive) | 3.27 µM (inactive) | 3.35 µM (inactive) | 3.37 µM (inactive) | 2.55 µM (inactive) | 2.07 µM (inactive) | 2.44 µM (inactive) | 4.09 µM (inactive) | 2.65 µM (inactive) | 2.78 µM (inactive) | 2.2 µM (inactive) | 4.03 µM (inactive) | 2.95 µM (inactive) | 3.68 µM (inactive) | 2.44 µM (inactive) |
| CCOc1cc2c(cc1O)CC[C@@H]1[C@@H]2CC[C@]2(C)C(N)CC[C@@H]12 (some centres undefined) | 3.5 µM (inactive) | 11.2 µM (inactive) | 4.49 µM (inactive) | 3.05 µM (inactive) | 3.78 µM (inactive) | 1.58 µM (inactive) | 4.06 µM (inactive) | 3.37 µM (inactive) | 5.93 µM (inactive) | 2.77 µM (inactive) | 3.45 µM (inactive) | 0.811 µM (active) | 5.86 µM (inactive) | 2.93 µM (inactive) | 3.24 µM (inactive) | 4.32 µM (inactive) | 4.83 µM (inactive) | 2.1 µM (inactive) | 9.2 µM (inactive) | 3.54 µM (inactive) |
| COc1ccc(C(=O)N2CCN(c3ccc4c(c3)OCC(=O)N4)CC2)cc1OC | > 100 µM (inactive) | > 100 µM (inactive) | > 100 µM (inactive) | > 100 µM (inactive) | > 100 µM (inactive) | > 100 µM (inactive) | > 100 µM (inactive) | > 100 µM (inactive) | > 100 µM (inactive) | > 100 µM (inactive) | 71.1 µM (inactive) | > 100 µM (inactive) | 52 µM (inactive) | > 100 µM (inactive) | > 100 µM (inactive) | > 100 µM (inactive) | > 100 µM (inactive) | > 100 µM (inactive) | > 100 µM (inactive) | > 100 µM (inactive) |
| C=C(C)C(=O)OC1C[C@H](COC(C)=O)C2CC=C(CO)C2C2OC(=O)C(=C)[C@H]12 (some centres undefined) | 27.6 µM (inactive) | 61.1 µM (inactive) | 16.4 µM (inactive) | 18.3 µM (inactive) | > 100 µM (inactive) | > 100 µM (inactive) | 26.7 µM (inactive) | 38.1 µM (inactive) | 13.8 µM (inactive) | > 100 µM (inactive) | 19.1 µM (inactive) | 42.4 µM (inactive) | > 100 µM (inactive) | > 100 µM (inactive) | > 100 µM (inactive) | 40.3 µM (inactive) | > 100 µM (inactive) | 69.2 µM (inactive) | 74.6 µM (inactive) | 39.2 µM (inactive) |
| Nc1ncc(/C=N/O)c(NCC2(CO)CC(CCc3ccccc3)C2)n1 (centres undefined) | 15.2 µM (inactive) | > 10 µM (inactive) | 10.8 µM (inactive) | 0.0569 µM (active) | 6.75 µM (inactive) | 14.3 µM (inactive) | 2.39 µM (inactive) | 4.58 µM (inactive) | 3.36 µM (inactive) | 12.9 µM (inactive) | 3.22 µM (inactive) | 11 µM (inactive) | 16.9 µM (inactive) | 13.9 µM (inactive) | 1.02 µM (active) | 16.1 µM (inactive) |  | 14.5 µM (inactive) | > 10 µM (inactive) | 5.45 µM (inactive) |
